Measured values as given in patent US20240165174A1, “[…]-BASED COMPOSITION AND USES THEREOF FOR R[…]” (priority 2021, published 2024).

Tested on: primary human monocytes
Test: Immunomodulation in human monocytes: cytokine/PGE2 release measured by ELISA after 24 h incubation
Type: cell-based
Conditions: up to the highest concentration studied (0.68 μg/mL and 0.59 μg/mL respectively)
Method: Monocyte cell cultures: Primary human monocytes were prepared from the buffy coat of healthy human blood donors using a standardized procedure.
Cells were seeded in 24-well plates at a density of 2200000 cells/well for ELISA measurements. Monocytes were incubated with test elements (5 different concentrations) for 24 h. LPS (10 ng/mL, Salmonella typhimurium SL1181) served as a positive control for cytokine release. After 24 h, supernatants were removed, centrifuged and studied for IL-1β, MCP-1, IL-6, TNF and IL-8 concentrations by ELISA using the manufacturer's protocol (n=6, 3 different donors).

Row | SMILES | effect on basal cytokine release in human monocytes
1 | Cc1ncc(CO)c(CO)c1O.Cl [vitamin B6] | Neither selenium, vitamin B6 nor vitamin D3 had any effect
2 | [Se] [selenium] | Neither selenium, vitamin B6 nor vitamin D3 had any effect
3 | C=C1CC[C@H](O)C/C1=C/C=C1\CCC[C@]2(C)[C@@H]([C@H](C)CCCC(C)C)CC[C@@H]12 [vitamin D3, cholecalciferol] | Neither selenium, vitamin B6 nor vitamin D3 had any effect
